# Data as given in US10206900B2, “Treatments for fibrotic diseases” (MOR RESEARCH APPLICATIONS LTD., priority 2013, dated 2019).
# Assays:
# RPE cells [1] = assay: Floating collagen matrix contraction assay in full serum; type: cell-based; details: 1 μM, full medium, 24 hours, control cells 50%
# Method: FIG. 5A: RPE cells were pre-treated with or without 5Z-7-oxozeaenol (1 μM) and seeded in collagen lattices in full medium. The experiments were performed in triplicates. Lattices were photo-documented after 24 hours and measured using Image-J software. […] Bars are Mean±SD. The transition of RPE cells to myofibroblasts is characterized, among other aspects, by increased contractile activity (Umazume et al., Invest Ophthalmol Vis Sci 2013, 54:1150-1159; Sakamoto et al., Curr Eye Res 1994, 13:451-459; West-Mays et al., Int J Biochem Cell Biol 2006, 38:1625-1631; Ma et al., Clinical & experimental ophthalmology 2012, 40:e76-86). To examine whether TAK1 is a general regulator of the EMT process affecting cell contractility, floating collagen matrix contraction assay was performed. The test was carried out in full serum with or without TAK1 inhibitor (FIGS. 5A and 5B). While in the control cells significant contraction was observed after 24 hours, reaching 50% of the initial size, TAK1 inhibition impaired the capacity of the cells to contract. The collagen lattice remained nearly 80% from the initial size (FIGS. 5A and B).
# Smad2/3 = Smad2/3 phosphorylation by immuno-blot in RPE cells; type: cell-based
# Method: (§1) FIG. 4A-4C: Inhibition of TAK1 abolishes the activation of TGF-β cascades. FIG. 4A: Serum-starved RPE cells were pretreated with or without with 5Z-7-oxozeaenol (1 μM) for 1 hour and then with TGF-β (2.5 ng/ml) for the indicated times. Total protein extracts were analyzed by western blot using the indicated antibodies. […] FIG. 4B: Levels of phospho-Smad2/3 were quantified and normalized to total Smad2/3 FIG. 4C: Statistical analysis of p-p38 and p-Smad3 activation normalized to p38 and Smad3 respectively, with or without TGF-β stimulation. The histograms present results of 5 independent experiments. Statistics were computed using student t-test (Two tailed distribution equal variance). Data is expressed as the Mean±SD. RPE cells were treated with or without 5Z-7-oxozeaenol followed by TGF-β1 treatment and Smad2/3 phosphorylation patterns were examined by immuno-blots. […] Upon TGF-β1 stimulation, the phosphorylation of p38 increased, reaching a peak at 60 min (FIGS. 4A and C).
# CTGF = CTGF transcription by qPCR in RPE cells; type: cell-based; details: 1 μM, TGF-β1, 6 h, 16 h and 24 h
# Method: (§2) FIG. 3A: RPE cells were plated on fibronectin-coated glass coverslips, serum-starved for 16 hours, pretreated with 5Z-7-oxozeaenol (1 μM) or SB431542 (10 μM), or DMSO for 1 hour, then treated with or without TGF-β1 for 2 days. Following treatment, the cells were stained with rhodamine-phalloidin (actin fibers-red) and DAPI (blue) and visualized by confocal microscopy. Scale bars: […]. FIG. 3B: Serum-starved RPE cells pretreated with 5Z-7-oxozeaenol (1 μM) or DMSO for 1 hour, and were exposed to TGF-β as in FIG. 3A. Total RNA was extracted at each time point and qPCR was performed. Transcription levels of CTGF were determined after 6 h, 16 h and 24 h. Bars represent the specific mRNA amount relative to GAPDH mRNA in the same samples. All experiments were performed in triplicates. A representative histogram from two independent experiments is shown. FIG. 3C: RPE cells were plated and treated as in FIG. 3A. Following treatment, the cells were immunostained with E-cadherin antibodies (green) and DAPI (blue). Representative photographs of two independent experiments are shown. CTGF, an important stimulant of fibrosis, functions as a downstream mediator of TGF-β, stimulating cell proliferation and cell matrix deposition (He et al., Invest Ophthalmol Vis Sci 2008, 49:4078-4088). We examined the association between TGF-β1 and CTFG expression in RPE cells by Real Time PCR (FIG. 3B).
# RPE cells [2] = assay: Cell size / morphology (rhodamine-phalloidin staining) upon TGF-β1; type: cell-based; details: 5Z-7-oxozeaenol 1 μM or SB431542 10 μM prior to TGF-β1
# Method: as §2, with “In addition to the secretion” for “CTGF, an important stimulant”, “MMPs” for “fibrosis, functions as a downstream mediator of TGF-β, stimulating cell proliferation”, “increased migratory capacity, several morphological changes underlie EMT (Lamouille” for “cell matrix deposition (He”, “I 2007, 178:437-451). […]” for “Invest Ophthalmol Vis Sci 2008, 49:4078-4088). We examined the association between TGF-β1 and CTFG expression in RPE cells by Real Time PCR (FIG. 3B).”
# p38 = p38 phosphorylation by immuno-blot in RPE cells; type: cell-based; details: 1 μM for 1 hour then TGF-β 2.5 ng/ml
# Method: as §1
# c57Black mice = assay: DSS-induced colitis in mice, fibrotic markers; type: in vivo; details: DSS 1.5% eight days, IP 180 ng per animal daily
# Method: C57black mice were treated with dextran sodium sulfate (DSS)-S 1.5% diluted in water for eight days and with or without 5Z-7 (1 uM) was IP injected total 180 ng for each animal Daily. After eight days the mice underwent evaluation to detect abnormalities in the Colom structure. N=14 mice for each group, Student T-test was used to determine the p value. The chart in FIG. 13 compares known markers that are considered as the main morphological phenotype for colitis. […] C57black mice were treated with dextran sodium sulfate (DSS)-S 1.5% diluted in water for eight days and with or without 5Z-7 (1 uM) IP injected total 180 ng for each animal daily. After eight days the mice underwent evaluation to detect abnormalities in the colon structure. In mice treated with DSS all markers of fibrosis such as: granulation, Transparency, fibrin and blood vessels were elevated by the DSS.
smiles,measurement,setting,value
COc1cc(O)c2c(c1)/C=C/C[C@H](O)[C@H](O)C(=O)/C=C\C[C@H](C)OC2=O [5Z-7-oxozeaenol],collagen lattice area relative to initial size,RPE cells [1],~80%
same,Smad2/3 activation (phospho-Smad2/3),Smad2/3; 1 μM for 1 hour then TGF-β 2.5 ng/ml,barely detectable
same,ratio of phospho-Smad2/3 to total Smad2/3,"Smad2/3; 1 μM, TGF-β1-stimulated, each time point",abolished Smad2/3 activation
same,levels of CTGF (mRNA relative to GAPDH),CTGF,gradually reduced the levels of CTGF
same,TGF-β1-induced increase in cell size (hypertrophic RPE cells),RPE cells [2],minimal number of hypertrophic RPE cells
same,p38 activation (phosphorylation) upon TGF-β1 stimulation,p38,abolished p38 activation
same,"fibrotic markers of colitis (granulation, Transparency, fibrin, blood vessels)",c57Black mice,reduce the fibrotic markers
